{"source": "patent US7935377B2", "about": "“Crystals of free (2R, 4R)-monatin and use thereof” (Ajinomoto Co., Inc., priority 2004, dated 2011)", "key": {"[1]": {"details": "cited from earlier work; for intensity of sweet taste: Nakamura et al., hydrochloride salts"}, "[2]": {"assay": "Hygroscopic property test (25° C., humidity 95%)", "format": "physicochemical", "details": "for water absorption: high humidity condition; for Increase percentage (absorbed water amount) / Weight: 25° C., humidity 95%; for absorbed water: after 24 hours, 95% high humidity condition", "protocol": "The crystals of free (2R,4R)-monatin (sample 1) prepared in Comparative Example 1, crystal of the potassium salt of (2R,4R)-monatin monohydrate (sample 2), and an amorphous solid of the potassium salt of (2R,4R)-monatin (sample 3) separately prepared were weighed out in an amount of 0.5 g, respectively, each was placed in a petri dish, and stored (retained) under a high humidity condition of 95% and a temperature of 25° C. After retention times of 1, 3, 6 and 24 hours, the weight of each sample was measured. The measuring conditions were as follows.\nApparatus name: HIFLEX TH401 supplied from ETAC.\nStoring condition: 25° C., humidity of 95%.\nSample container: diameter of 25 cm, glass petri dish."}, "[3]": {"assay": "Sweetness intensity of crystals of free (2R,4R)-monatin compared with an aqueous solution of 5% sucrose", "protocol": "It was identified that the sweetness intensity (degree of sweetness) of the present crystals of free (2R,4R)-monatin is about 2500 times that of an aqueous solution of 5% sucrose. This sweetness intensity is nearly equivalent to the sweetness intensity (about 2700 times) of the crystals of the sodium salt of (2R,4R)-monatin evaluated by the inventors in Amino, Y. et al., WO 2003045914 A1.\n1.05 mg of crystals of free (2R,4R)-monatin described in the above Comparative Example 1 were dissolved in 20 ml of ion-exchanged water. A solution was prepared by diluting this solution 2.5 times. The sweetness of this aqueous solution of the free compound of (2R,4R)-monatin was compared with that of an aqueous solution of 5% sucrose separately prepared."}, "[4]": {"details": "sodium salt of stereoisomer, 5% sucrose solution as control, optical purity 99% or more, cited from earlier work"}}, "note": "Where two headings read alike, the source gives them in different places."}
{"compound": "NC(CC(O)(Cc1c[nH]c2ccccc12)C(=O)O)C(=O)O", "note": "[synthetic (2S,4S)-monatin, (2S,4S)-monatin]", "values": [{"measurement": "intensity of sweet taste", "setting": "[1]", "value": "equivalent to that of the natural specimen of monatin"}]}
{"compound": "N[C@H](CC(O)(Cc1c[nH]c2ccccc12)C(=O)O)C(=O)O", "note": "(stereo partly drawn) [Sample 1, (2R,4R)-monatin]", "values": [{"measurement": "water absorption", "setting": "[2]; listed as crystal of free (2R,4R)-monatin", "value": "scarcely absorbs water"}, {"measurement": "water absorption", "setting": "[2]; listed as crystals of free (2R,4R)-monatin", "value": "no water absorption"}, {"measurement": "Increase percentage (absorbed water amount)", "setting": "[2]; retention time 0 hrs", "value": 0.00, "unit": "%"}, {"measurement": "Weight", "setting": "[2]; retention time 0 hrs", "value": 0.5000, "unit": "g"}, {"measurement": "Increase percentage (absorbed water amount)", "setting": "[2]; retention time 1 hr", "value": 0.00, "unit": "%"}, {"measurement": "Weight", "setting": "[2]; retention time 1 hr", "value": 0.5000, "unit": "g"}, {"measurement": "Increase percentage (absorbed water amount)", "setting": "[2]; retention time 3 hrs", "value": 0.00, "unit": "%"}, {"measurement": "Weight", "setting": "[2]; retention time 3 hrs", "value": 0.4996, "unit": "g"}, {"measurement": "Increase percentage (absorbed water amount)", "setting": "[2]; retention time 6 hrs", "value": 0.00, "unit": "%"}, {"measurement": "Weight", "setting": "[2]; retention time 6 hrs", "value": 0.5001, "unit": "g"}, {"measurement": "Increase percentage (absorbed water amount)", "setting": "[2]; retention time 24 hrs", "value": 0.00, "unit": "%"}, {"measurement": "Weight", "setting": "[2]; retention time 24 hrs", "value": 0.4997, "unit": "g"}, {"measurement": "sweetness compared with aqueous solution of 5% sucrose", "setting": "[3]; 1.05 mg in 20 ml ion-exchanged water, diluted 2.5 times", "value": "nearly equivalent sweetness intensity"}, {"measurement": "sweetness intensity (degree of sweetness)", "setting": "[3]; relative to an aqueous solution of 5% sucrose", "value": "about 2500 times"}]}
{"compound": "NC(CC(O)(Cc1c[nH]c2ccccc12)C(=O)O)C(=O)O", "note": "[(2S,4S)-monatin substance, (2S,4S)-monatin]", "values": [{"measurement": "degree of sweetness", "setting": "[4]", "value": 50, "unit": "times"}]}
{"compound": "N[C@H](C[C@](O)(Cc1c[nH]c2ccccc12)C(=O)O)C(=O)O", "note": "[(2R,4R)-monatin substance, (2R,4R)-monatin]", "values": [{"measurement": "degree of sweetness", "setting": "[4]", "value": 2700, "unit": "times"}, {"measurement": "degree of sweetness", "setting": "[4]; listed as (2R,4R)", "value": 2700, "unit": "times"}, {"measurement": "degree of sweetness", "setting": "[4]; listed as crystals of the sodium salt of (2R,4R)-monatin", "value": "about 2700 times"}]}
{"compound": "potassium salt of (2R,4R)-monatin [Sample 3]", "values": [{"measurement": "absorbed water", "setting": "[2]", "value": 7.3, "unit": "wt. %"}, {"measurement": "Increase percentage (absorbed water amount)", "setting": "[2]; retention time 0 hrs", "value": 0.00, "unit": "%"}, {"measurement": "Weight", "setting": "[2]; retention time 0 hrs", "value": 0.5014, "unit": "g"}, {"measurement": "Increase percentage (absorbed water amount)", "setting": "[2]; retention time 1 hr", "value": 8.82, "unit": "%"}, {"measurement": "Weight", "setting": "[2]; retention time 1 hr", "value": 0.5456, "unit": "g"}, {"measurement": "Increase percentage (absorbed water amount)", "setting": "[2]; retention time 3 hrs", "value": 8.58, "unit": "%"}, {"measurement": "Weight", "setting": "[2]; retention time 3 hrs", "value": 0.5444, "unit": "g"}, {"measurement": "Increase percentage (absorbed water amount)", "setting": "[2]; retention time 6 hrs", "value": 7.30, "unit": "%"}, {"measurement": "Weight", "setting": "[2]; retention time 6 hrs", "value": 0.5383, "unit": "g"}, {"measurement": "Increase percentage (absorbed water amount)", "setting": "[2]; retention time 24 hrs", "value": 7.30, "unit": "%"}, {"measurement": "Weight", "setting": "[2]; retention time 24 hrs", "value": 0.5380, "unit": "g"}]}
{"compound": "N[C@@H](C[C@@](O)(Cc1c[nH]c2ccccc12)C(=O)O)C(=O)O", "note": "[(2S,4S)-monatin, (2S,4S)-2-amino-4-carboxy-4-hydroxy-5-(3-indolyl)-pentanoic acid]", "values": [{"measurement": "sweetness intensity", "setting": "[1]; times that of sucrose, Vleggaar et al.", "value": "800 to 1400", "unit": "times"}]}
{"compound": "potassium salt of (2R,4R)-monatin monohydrate [Sample 2]", "values": [{"measurement": "absorbed water", "setting": "[2]", "value": 5.4, "unit": "wt. %"}, {"measurement": "Increase percentage (absorbed water amount)", "setting": "[2]; retention time 0 hrs", "value": 0.00, "unit": "%"}, {"measurement": "Weight", "setting": "[2]; retention time 0 hrs", "value": 0.5007, "unit": "g"}, {"measurement": "Increase percentage (absorbed water amount)", "setting": "[2]; retention time 1 hr", "value": 1.08, "unit": "%"}, {"measurement": "Weight", "setting": "[2]; retention time 1 hr", "value": 0.5061, "unit": "g"}, {"measurement": "Increase percentage (absorbed water amount)", "setting": "[2]; retention time 3 hrs", "value": 3.71, "unit": "%"}, {"measurement": "Weight", "setting": "[2]; retention time 3 hrs", "value": 0.5193, "unit": "g"}, {"measurement": "Increase percentage (absorbed water amount)", "setting": "[2]; retention time 6 hrs", "value": 4.89, "unit": "%"}, {"measurement": "Weight", "setting": "[2]; retention time 6 hrs", "value": 0.5252, "unit": "g"}, {"measurement": "Increase percentage (absorbed water amount)", "setting": "[2]; retention time 24 hrs", "value": 5.39, "unit": "%"}, {"measurement": "Weight", "setting": "[2]; retention time 24 hrs", "value": 0.5277, "unit": "g"}]}
{"compound": "N[C@@H](C[C@](O)(Cc1c[nH]c2ccccc12)C(=O)O)C(=O)O", "note": "[(2S,4R)-monatin substance, (2S,4R)-monatin]", "values": [{"measurement": "degree of sweetness", "setting": "[4]", "value": 300, "unit": "times"}]}
{"compound": "N[C@@H](C[C@](O)(Cc1c[nH]c2ccccc12)C(=O)O)C(=O)O", "note": "[synthetic (2S,4R)-monatin, (2S,4R)-monatin]", "values": [{"measurement": "intensity of sweet taste", "setting": "[1]", "value": "slightly sweet taste"}, {"measurement": "intensity of sweet taste", "setting": "[1]; listed as hydrochloride salt of (2S,4R)-monatin", "value": "almost no sweetness"}]}
{"compound": "N[C@H](C[C@@](O)(Cc1c[nH]c2ccccc12)C(=O)O)C(=O)O", "note": "[(2R,4S)-monatin substance, (2R,4S)-monatin]", "values": [{"measurement": "degree of sweetness", "setting": "[4]", "value": 1300, "unit": "times"}]}
